The text below walks through data of patent publication US5728686A, “Alkylxanthine phosphonates and alkylxanthine phosphine oxides and their use as pharmaceuticals” (Hoechst Aktiengesellschaft, priority 1996, dated 1998).

Structures are written as SMILES. ≈ marks a conversion by molar mass, not a printed value. A value given as a limit tells only on which side of the number the result lay.

Assay [1] has as its system isolated guinea pig trachea, agonist PGF2α. The assay can be described thus: antagonist of PGF2α-induced contraction of isolated guinea pig trachea. Conditions: Cavia porcellus, 37° C., read-out: Anticontractile action (trachea), PGF2α: concentration range for dilatation corresponding to ED50 range. Type of assay: cell-based. The source says: (§1) 3. Activity as antagonist of the contraction of isolated guinea pig trachea
(§2) The compounds of the formula I are used as antagonists of the contraction of isolated guinea pig trachea. The agonists employed were PGF2α (Upjohn, Germany), calcium ionophore A23187 (Calbiochem, Bad Soden, Germany), and substance P (American Peptide Comp., USA):
Inhibition of contractions which are induced by this cyclooxygenase product is only possible by competitive antagonism at the receptor or of the subsequent signal pathway.
(§3) Preparation of the organ sections and experimental procedure:
(§4) The guinea pig is sacrificed by means of terminal laughing gas anaesthesia. The trachea is exposed along its entire length and cut into 15 individual cartilage rings. 5 rings in each case are tied together to give a chain and fixed in the organ bath under a preload of 3 g. After an equilibration time of 45 minutes, a contraction is produced using the agonist. The antagonist (test preparation) is added cumulatively on the plateau of the maximum. Evaluation is carried out in % force change relative to the contraction maximum. The experimental procedure is carried out at 37° C.; the physiological nutrient solution used is a modified Krebs-Henseleit solution through which is bubbled 95% by volume of O2, 5% by volume of CO2.
(§5) Experimental animals: albino guinea pigs (Hattersheim Animal Breeding Institute, Kastengrund, Germany), weight: 200 to 300 g, sex male or female.
(§6) Vehicle: double-distilled water, ethanol or isopropanol; administration: into the organ bath number of administration: cumulative, in SP individual doses
(§7) All numerical values are indicated in the unit μg/ml and relate to the concentration range of the tested compound of the formula I according to the invention (see example numbers in Table 1) which is necessary in order to cause a dilatation which corresponds to the ED50 range.

The test system of assay [2] is isolated guinea pig lung strips, Platelet activating factor (PAF). The assay can be described thus: antagonist of PAF-induced contraction of isolated guinea pig lung strips. The note with it: Cavia porcellus, read-out: Anticontractile action (lung), PAF: concentration range corresponding to the IC50 value. Type of assay: cell-based. An outline of the steps: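 Guinea pig lung strips, 3 mm wide, held at 4 g preload in modified Krebs-Henseleit at 37° C, gassed 95% O2/5% CO2, contracted by PAF or LTD4. Compound given cumulatively at 1, 3, 6 and 10 μg/ml; value is the concentration in μg/ml giving IC50-level effect.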

Another assay concerns phosphodiesterase III. The assay is described as follows: inhibition of phosphodiesterase III activity. Type of assay: biochemical. Conditions: at 100 μM. The protocol: 5. Inhibition of phosphodiesterase III activity
The test is carried out using phosphodiesterase from Boehringer Mannheim (Mannheim, Germany), Order No. 108 243 according to the method of T. SAEKI, I. SAITO, Biochem. Pharm. 46, No. 5, […], pages 833-839.
All numerical values are indicated in % inhibition of the enzyme activity at 100 μM of the corresponding compound of the formula I.

For assay [3], the system named is isolated guinea pig trachea, agonist substance P. The assay is described as follows: antagonist of substance P-induced contraction of isolated guinea pig trachea. The note with it: Cavia porcellus, individual doses, 37° C., read-out: Anticontractile action (trachea), SP antagonism: concentration range for dilatation corresponding to ED50 range. Type of assay: cell-based.
From the text: as §1, §2
The antagonism is possible on the one hand due to specific receptor antagonists, and on the other hand also due to inhibition of the subsequent signal pathway. Preparations which directly or indirectly increase the intracellular concentration of cyclic nucleotides in particular show spasmolytic properties here.
as §3, §4, §5, §6, §7

The subject of assay [4] is isolated guinea pig trachea, agonist calcium ionophore A23187. The assay can be described thus: antagonist of calcium ionophore A23187-induced contraction of isolated guinea pig trachea. Type of assay: cell-based. The note with it: Cavia porcellus, 37° C., read-out: Anticontractile action (trachea), Ca ionophore: concentration range for dilatation corresponding to ED50 range.
From the text: as §1, §2
b) Calcium ionophore A23187 (Calbiochem, Bad Soden) acts by increased uptake of calcium ions, and an activation of all calcium-dependent signal cascades in the cell. Lipoxygenase inhibitors, in particular, and generally antiinflammatory substances show effects in this model.
as §3, §4, §5, §6, §7

Assay [5] relates to isolated guinea pig lung strips, leukotriene D4 (LTD4). The assay is described as follows: antagonist of LTD4-induced contraction of isolated guinea pig lung strips. The note with it: Cavia porcellus, read-out: Anticontractile action (lung), LTD4: concentration range corresponding to the IC50 value. The assay is classed as cell-based.
From the text: 4. Activity as an antagonist of the contraction of isolated guinea pig lung strips
The test carried out is based on the same principle as the test indicated in the pharmacological test 3; however, lung strips are used here.
as §3
The guinea pig is sacrificed under laughing gas anaesthesia. The entire pulmonary tract is exposed starting from the trachea. The lobes of the lung are cut in a circular fashion such that 3 mm wide strips are formed. The strips of the upper lobes are divided in order to obtain a total of six approximately equal size strips. The strips are suspended in the organ baths under a preload of 4 g. The nutrient solutions used are modified Krebs Henseleit solutions. When using "Platelet activating factor" (PAF) as an […], the composition of this solution corresponds to that for the agonist SP in "Test 3"; for the agonist LTD4 a Krebs Henseleit solution as in the case of the agonist KCl (Test 3) is used. 95% by volume O2, 5% by volume CO2 is used for bubbling through the bath; the bath temperature is 37° C. The experimental procedure is carried out in a therapeutically cumulative methodology, using the dosage graduations 1, 3, 6 and 10 μg/ml.
The experimental animals, organ bath, vehicles and manner of administration correspond to that stated in pharmacological test 3.
All numerical values are indicated in the unit μg/ml and relate to the concentration range of tested compound of the formula I (see example numbers in Table 1) which is necessary in order to cause a contraction which corresponds to the IC50 value.

The subject of assay [6] is muscle group (gastrocnemius, plantaris and soleus) of the immobilized right rear extremity. The assay can be described thus: rat muscle function test: direct electrical stimulation of muscle group after 3 weeks' immobilization. The note with it: oral, 1x per day for 3 weeks, as a rule 25 mg/kg, ≤-12% classified as active; for Force (force under the contraction curve, right/left difference): isometric stimulation, control difference approx. 25%; for Work (performed work, right/left difference): isotonic stimulation, control approx. -25%. The assay is classed as in vivo, male Wistar rats. An outline of the steps:
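Male Wistar rats (about 300 g) had the right hindlimb immobilized in a plastic cast for 3 weeks while dosed orally once daily, usually 25 mg/kg in carboxymethylcellulose. Under pentobarbital, the gastrocnemius/plantaris/soleus group was stimulated directly: isometric force (0.5N preload, 15 min) as area-under-curve, and isotonic work (body-weight preload, 15 min) in J; results as Δ% immobilized vs contralateral muscle.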

The test system of the next assay is soleus muscle. The assay can be described thus: rat muscle function test: muscle weight (atrophy of immobilized extremity). Type of assay: in vivo, male Wistar rats. The note with it: oral, 1x per day for 3 weeks, as a rule 25 mg/kg, difference ≤25% classified as an effect. The procedure, abridged:
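Male Wistar rats (~300 g) had the right hind limb immobilized in a padded plastic cast for 3 weeks with daily oral dosing by stomach tube, as a rule 25 mg/kg in carboxymethylcellulose. Soleus weight of the immobilized limb was compared with the contralateral limb; a difference of ≤25% was classed as an effect.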

The subject of assay [7] is Endotoxin (LPS) from Salmonella abortus equi. The assay is described as follows: effect on endotoxin fatality (LPS-induced septic shock). Type of assay: in vivo, female NMRI mice. The note with it: 25 mg/kg i.p. at the same time as LPS 60 mg/kg i.p.; 72 hours; vs placebo control. The protocol: 2. Test for effect on endotoxin fatality
Individual injections of lipopolysaccharide (LPS), from gram-negative bacteria, lead via a series of various symptoms to septic shock, which usually turns out to be fatal. Endotoxin (LPS) from Salmonella abortus equi in a dose of 60 mg/kg i.p. leads to shock and to death with at most 72 h p.a. (the dose of 60 mg/kg corresponds to approximately 1.20 mg of LPS/animal).
The experimental animals used are female NMRI mice from the Hoechst AG/Hattersheim animal breeding unit having a body weight of 22 to 24 g.
The test substances administered intraperitoneally (i.p.) in an administration volume of 10 ml/kg at the same time as the LPS. The number of surviving animals after 72 hours' LPS administration is indicated in comparison to a placebo control. The number of tested animals per group is 5; dose 25 mg/kg.

Regarding `CCOP(=O)(CCCCn1c(=O)c2c(ncn2Cc2ccccc2)n(C)c1=O)OCC` [Example 23, Diethyl [4-(7-benzyl-3-methylxanthin-1-yl)butyl]phosphonate], the EC50 is more than 10 µg/mL in assay [1], 10 to 30 µg/mL (≈ 22.3 to 66.9 µM) in [3] and more than 10 µg/mL in [4]. Further, the IC50 in assay [2] and in assay [5] was 1 to 3 µg/mL (≈ 2.23 to 6.69 µM) each time. The “PDE III Inhibition” value in the assay with phosphodiesterase III was 65%.
`CCOP(=O)(CCCCn1c(=O)c2c(ncn2CC)n(C)c1=O)OCC` [Example 30, Diethyl [4-(7-ethyl-3-methylxanthin-1-yl)butyl]phosphonate]: the figures for the EC50 in assay [1], in assay [3] and in assay [4] were more than 10 µg/mL, 10 to 30 µg/mL (≈ 25.9 to 77.6 µM) and 10 µg/mL (≈ 25.9 µM), respectively. Also, in assay [6], the “Force (force under the contraction curve, right/left difference)” value is “+2 Δ %”. Further, in assay [6], the “Work (performed work, right/left difference)” value was “+5 Δ %”. For the same compound, the IC50 in [2] was 3 to 6 µg/mL (≈ 7.76 to 15.5 µM); in [5], 6 to 10 µg/mL (≈ 15.5 to 25.9 µM). Besides, in the assay on soleus muscle, the “Muscle weight (right/left difference)” value is on record as 0 Δ %.
Consider `CCCn1cnc2c1c(=O)n(CCCCP(=O)(OCC)OCC)c(=O)n2CC` [Example 38, Diethyl [4-(3-ethyl-7-propylxanthin-1-yl)butyl]phosphonate], for which the EC50 was more than 10 µg/mL in [1], 10 to 30 µg/mL (≈ 24.1 to 72.4 µM) in [3] and 10 µg/mL (≈ 24.1 µM) in assay [4]. In [6], the “Force (force under the contraction curve, right/left difference)” value is -10 Δ %. In assay [6], the “Work (performed work, right/left difference)” value was -3 Δ %. Further, in assay [2], the IC50 is 1 to 3 µg/mL (≈ 2.41 to 7.24 µM). For the same compound, the Inhibition of mortality in assay [7] is 60%.
